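96-well plates; 48 h exposure; 5 concentrations. Endpoints by linear interpolation between flanking doses. Not reached: highest tested concentration assigned. Abbreviation: GI50, concentration required for 50% inhibition of growth.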 The source made the active and inactive calls. Rule as the data show it: active = GI50 up to about 1.1 µM and inactive = higher.
Columns and labels:
Assay in all cases: NCI-60 cell line screen, 48 h
HOP-92 = system: HOP-92
SW-620 = system: SW-620
NCI-H23 = system: NCI-H23
NCI/ADR-RES = system: NCI/ADR-RES
SF-295 = system: SF-295
TK-10 = system: TK-10
OVCAR-3 = system: OVCAR-3
ACHN = system: ACHN
SNB-19 = system: SNB-19
CCRF-CEM = system: CCRF-CEM
UO-31 = system: UO-31
SN12C = system: SN12C
RPMI-8226 = system: RPMI-8226
IGROV-1 = system: IGROV-1
DU-145 = system: DU-145
BT-549 = system: BT-549
HL-60 = system: HL-60
SK-MEL-5 = system: SK-MEL-5
SK-MEL-28 = system: SK-MEL-28
HCT-15 = system: HCT-15

Compound	GI50 (HOP-92)	GI50 (SW-620)	GI50 (NCI-H23)	GI50 (NCI/ADR-RES)	GI50 (SF-295)	GI50 (TK-10)	GI50 (OVCAR-3)	GI50 (ACHN)	GI50 (SNB-19)	GI50 (CCRF-CEM)	GI50 (UO-31)	GI50 (SN12C)	GI50 (RPMI-8226)	GI50 (IGROV-1)	GI50 (DU-145)	GI50 (BT-549)	GI50 (HL-60)	GI50 (SK-MEL-5)	GI50 (SK-MEL-28)	GI50 (HCT-15) [µM]
O=c1[nH]c(=O)n(C/C=C/CO)nc1Br	> 100 µM (inactive)	> 100 µM (inactive)	> 100 µM (inactive)	> 100 µM (inactive)	> 100 µM (inactive)	> 100 µM (inactive)	> 100 µM (inactive)	> 100 µM (inactive)	> 100 µM (inactive)	> 100 µM (inactive)	> 100 µM (inactive)	> 100 µM (inactive)	> 100 µM (inactive)	> 100 µM (inactive)	> 100 µM (inactive)	> 100 µM (inactive)	> 100 µM (inactive)	> 100 µM (inactive)	> 100 µM (inactive)	> 100
COc1c(C(=O)O)cccc1-c1cccc(C(=O)NCCN(CCNC(=O)c2cccc(-c3cccc(C(=O)O)c3OC)c2OC)CCNC(=O)c2cccc(-c3cccc(C(=O)O)c3OC)c2OC)c1OC	67.1 µM (inactive)	29.6 µM (inactive)	64.7 µM (inactive)	> 100 µM (inactive)	40.5 µM (inactive)	> 100 µM (inactive)	18.5 µM (inactive)	50.5 µM (inactive)	52 µM (inactive)	35.2 µM (inactive)	> 100 µM (inactive)	29.4 µM (inactive)	23.2 µM (inactive)	39.8 µM (inactive)	39 µM (inactive)	52.1 µM (inactive)	18.2 µM (inactive)	4.84 µM (inactive)	52.5 µM (inactive)	65.2
CCOC1=C(c2ccccc2)N2CCCCC2O1 (stereo not given)	2.21 µM (inactive)	4.21 µM (inactive)	3.29 µM (inactive)	23.7 µM (inactive)	3.26 µM (inactive)	5.32 µM (inactive)	3.79 µM (inactive)	4.68 µM (inactive)	3.76 µM (inactive)	2.94 µM (inactive)	19.8 µM (inactive)	8.85 µM (inactive)	1.5 µM (inactive)	5.78 µM (inactive)	4.19 µM (inactive)	5.33 µM (inactive)	1.5 µM (inactive)	1.7 µM (inactive)	12.3 µM (inactive)	29
C=CCN1C(=O)/C(=C\c2cc(C(C)(C)C)c(O)c(C(C)(C)C)c2)NC1=S	28.9 µM (inactive)	20.6 µM (inactive)	21.2 µM (inactive)	23.9 µM (inactive)	21.2 µM (inactive)	25 µM (inactive)	12.1 µM (inactive)	26.5 µM (inactive)	41.9 µM (inactive)	0.879 µM (active)	28.8 µM (inactive)	23.1 µM (inactive)	7.87 µM (inactive)	36.6 µM (inactive)	21.2 µM (inactive)	33.9 µM (inactive)	0.239 µM (active)	15.9 µM (inactive)	30.6 µM (inactive)	22.2
CC(C)CC(NC(=O)C(CI)Cc1ccccc1)C(=O)Nc1ccccc1 (stereo not given)	> 100 µM (inactive)	> 100 µM (inactive)	> 100 µM (inactive)	> 100 µM (inactive)	> 100 µM (inactive)	> 100 µM (inactive)	> 100 µM (inactive)	> 100 µM (inactive)	> 100 µM (inactive)	> 100 µM (inactive)	> 100 µM (inactive)	> 100 µM (inactive)	> 100 µM (inactive)	> 100 µM (inactive)	> 100 µM (inactive)	7.76 µM (inactive)	> 100 µM (inactive)	> 100 µM (inactive)	> 100 µM (inactive)	> 100
CC(=O)Nc1ccc2c(c1)/C(=N/c1ccc(C(=O)O)cc1)c1ccccc1-2	37.9 µM (inactive)	> 100 µM (inactive)	> 100 µM (inactive)	95.1 µM (inactive)	96.4 µM (inactive)	> 100 µM (inactive)	99.8 µM (inactive)	> 100 µM (inactive)	55.6 µM (inactive)	26.4 µM (inactive)	38.3 µM (inactive)	> 100 µM (inactive)	36 µM (inactive)	46.3 µM (inactive)	> 100 µM (inactive)	47.1 µM (inactive)	< 0.01 µM (active)	25.8 µM (inactive)	> 100 µM (inactive)	43.9
O=[N+]([O-])c1ccc(C(Nc2ccccc2)c2ccc3cccnc3c2O)cc1 (stereo not given)	7.87 µM (inactive)	6.27 µM (inactive)	11.5 µM (inactive)	3.67 µM (inactive)	4.37 µM (inactive)	8.49 µM (inactive)	4.02 µM (inactive)	5.61 µM (inactive)	7.74 µM (inactive)	2.17 µM (inactive)	6.78 µM (inactive)	7.94 µM (inactive)	5.13 µM (inactive)	10.6 µM (inactive)	9.14 µM (inactive)	10.3 µM (inactive)	3.37 µM (inactive)	7.18 µM (inactive)	40.6 µM (inactive)	4.26
O=C(c1ccc(Cl)cc1)N1N=C(c2ccc(Cl)cc2)CC1(O)c1cc(F)c(Cl)cc1Cl (stereo not given)	11.6 µM (inactive)	17.4 µM (inactive)	12.2 µM (inactive)	18.4 µM (inactive)	20.6 µM (inactive)	52.7 µM (inactive)	21.8 µM (inactive)	21.3 µM (inactive)	14.6 µM (inactive)	18.7 µM (inactive)	9.06 µM (inactive)	14.5 µM (inactive)	8.22 µM (inactive)	17.9 µM (inactive)	27.3 µM (inactive)	62.2 µM (inactive)	21.2 µM (inactive)	68.2 µM (inactive)	44.3 µM (inactive)	15.5
C[N+](C)(C)C(Cc1c[nH]c(=S)[nH]1)C(=O)O (stereo not given)	> 100 µM (inactive)	> 100 µM (inactive)	> 100 µM (inactive)	> 100 µM (inactive)	> 100 µM (inactive)	> 100 µM (inactive)	> 100 µM (inactive)	> 100 µM (inactive)	> 100 µM (inactive)	> 100 µM (inactive)	> 100 µM (inactive)	> 100 µM (inactive)	> 100 µM (inactive)	> 100 µM (inactive)	> 100 µM (inactive)	> 100 µM (inactive)	> 100 µM (inactive)	> 100 µM (inactive)	> 100 µM (inactive)	> 100
COc1cccc(CCN2CCN(CCCc3ccccc3)CC2)c1	8.41 µM (inactive)	> 100 µM (inactive)	53 µM (inactive)	> 100 µM (inactive)	43 µM (inactive)	> 100 µM (inactive)	64.6 µM (inactive)	> 100 µM (inactive)	> 100 µM (inactive)	> 100 µM (inactive)	51.1 µM (inactive)	> 100 µM (inactive)	32.6 µM (inactive)	> 100 µM (inactive)	> 100 µM (inactive)	40.1 µM (inactive)	61.4 µM (inactive)	19.4 µM (inactive)	> 100 µM (inactive)	31.7
COCCOC(C)C(=O)C(O)S(=O)(=O)O (stereo not given)	> 100 µM (inactive)	> 100 µM (inactive)	> 100 µM (inactive)	> 100 µM (inactive)	> 100 µM (inactive)	> 100 µM (inactive)	> 100 µM (inactive)	> 100 µM (inactive)	> 100 µM (inactive)	> 100 µM (inactive)	> 100 µM (inactive)	> 100 µM (inactive)	> 100 µM (inactive)	> 100 µM (inactive)	> 100 µM (inactive)	> 100 µM (inactive)	> 100 µM (inactive)	> 100 µM (inactive)	> 100 µM (inactive)	> 100
Cc1ccc(S(=O)(=O)Oc2cc(N)c3c(n2)CCC3)cc1	52.6 µM (inactive)	> 100 µM (inactive)	> 100 µM (inactive)	79.8 µM (inactive)	53.8 µM (inactive)	> 100 µM (inactive)	37.9 µM (inactive)	> 100 µM (inactive)	> 100 µM (inactive)	64.1 µM (inactive)	69.3 µM (inactive)	> 100 µM (inactive)	24.3 µM (inactive)	> 100 µM (inactive)	> 100 µM (inactive)	> 100 µM (inactive)	43.2 µM (inactive)	39 µM (inactive)	> 100 µM (inactive)	> 100
COC(=O)C(CCC(=O)CCl)N1C(=O)c2ccccc2C1=O (stereo not given)	5.78 µM (inactive)	3.62 µM (inactive)	9.89 µM (inactive)	9.42 µM (inactive)	17.7 µM (inactive)	14.5 µM (inactive)	11.6 µM (inactive)	13.3 µM (inactive)	18.7 µM (inactive)	1.67 µM (inactive)	14.4 µM (inactive)	10.5 µM (inactive)	3.37 µM (inactive)	12.4 µM (inactive)	16.9 µM (inactive)	8.97 µM (inactive)	2.53 µM (inactive)	4.95 µM (inactive)	10.7 µM (inactive)	4.25
Nc1nc(SCC(=O)c2ccc(Br)cc2)c2nc[nH]c2n1	17.3 µM (inactive)	46.6 µM (inactive)	45.2 µM (inactive)	27.4 µM (inactive)	34.8 µM (inactive)	20.8 µM (inactive)	32.3 µM (inactive)	34 µM (inactive)	> 100 µM (inactive)	6.28 µM (inactive)	27.4 µM (inactive)	34.4 µM (inactive)	17.1 µM (inactive)	13.6 µM (inactive)	27.5 µM (inactive)	27 µM (inactive)	25.3 µM (inactive)	20 µM (inactive)	65.2 µM (inactive)	30.1
